In brackets after ≈: the same amount, converted by molar mass. Like-named read-outs stand apart in the source and are kept apart here.
Tests used:
[1] = test system: C. neoformans; assay: MFC assay, plating after the MIC test; format: cell-based; conditions: Cryptococcus neoformans, 48 h; further: kills > 99.9%
Protocol: (§1) In vitro antifungal assays. The MIC assays for C. albicans (K1, SC5314, Gu5, ATCC90028, R01, R02, R03 and R04 strains) and C. neoformans (H99, MYA737 and JEC21 strains) were conducted according to a previously described protocol. The cultured fungal cells were collected at 2.5 × 10^3 CFU/mL in RPMI 1640 medium to give the working suspension. Two- […]
(§2) Then 50 µL of the cell suspension was added to each well. Wells containing cells in RPMI without any polymer or antifungal drug were used as drug-free controls, and wells containing RPMI medium only were used as cell-free controls. The plate was gently stirred for 10 seconds and then incubated at 30 °C. After C. albicans and C. neoformans cells were incubated for 24 h and 48 h, respectively, fungal cell growth was checked visually. The MIC values were identified as the lowest concentration […]
(§3) The MFC assay for Candida and Cryptococcus was conducted after the MIC test.
(§4) An aliquot of 3 µL premixed suspension from each well was plated on the yeast extract-peptone-dextrose (YPD) agar. The plates were incubated at 30 °C for 24 h and 48 h, respectively, for C. albicans cells and C. neoformans cells. Then the plate was inspected visually for colony formation. […]

[2] = test system: C. albicans; assay: MFC assay, plating after the MIC test; format: cell-based; conditions: Candida albicans; further: kills > 99.9%
Protocol: as §1, §2, §3, §4

[3] = test system: C. albicans K1 strain; assay: Kill kinetics assay; format: cell-based, Candida albicans; conditions: 2 × MFC, C. albicans K1, RPMI 1640, 30 °C, CFU on YPD agar, duplicates
Protocol: Kill kinetics assay. A culture of C. albicans K1 strain was collected at 2.5 × 10^3 CFU/mL or 6.0 × 10^6 CFU/mL in RPMI 1640 medium to give the working suspension. […]
solution was added to 0.5 mL of the above fungal suspension in each well of a 24-well plate to achieve 2 × MFC of polymer concentration. The fungal suspensions were incubated at 30 °C. At desired time points, each suspension was homogeneously mixed and 30 µL of each

[4] = test system: C. albicans biofilm formation; assay: Inhibition of biofilm formation (MTT); format: cell-based, Candida albicans; conditions: RPMI, 37 °C, 48 h, inhibits 80% of biofilm formation
Protocol: fresh non-treated cell suspension was used as a control. The bright field and FITC fluorescence were collected under 100× oil immersion lenses, with representative areas in the images electronically amplified sixfold.
Anti-biofilms. This study was conducted in 96-well plates (flat bottom and tissue-culture treated) by following the reported protocol with slight modifications. On each plate, wells containing RPMI only and cells in medium without any antifungal agent were used as the negative and positive control, respectively.
For biofilm formation: Freshly cultured fungal cells were collected to prepare the working suspension at 1.0 × 10^6 CFU/mL in RPMI. A two-fold serial dilution for each antifungal agent was prepared using a corresponding medium in a 96-well plate to give 100 µL of polymer solution in each well. 100 µL of the working suspension was added to each […]
followed by addition of 100 µL MTT solution (1 mg/mL). The MTT assay protocol was the same as the above mentioned protocol in fibroblast cell toxicity assay. This value was calculated from [% biofilm growth = (A polymer – Ablank)/(Acontrol – Ablank) × 100] and plotted against polymer concentration to give the dose-response graphs for inhibition of biofilm formation for each antifungal agent. The SMIC 80 value is the minimum concentration of a given agent that is necessary to inhibit 80% of fungal biofilm formation. […]

Row | Compound | MFC ([1]; read-out: MFC C. neoformans JEC21) [µg/mL] | MFC ([1]; read-out: MFC C. neoformans MYA737) [µg/mL] | MFC ([2]; 24 h, read-out: MFC C. albicans R01) [µg/mL] | MFC ([2]; 24 h, read-out: MFC C. albicans R03) [µg/mL] | MFC ([2]; ATCC90028, 24 h, read-out: MFC C. albicans ATCC90028) [µg/mL] | MFC ([2]; SC5314, 24 h, read-out: MFC C. albicans SC5314) [µg/mL] | Time to completely kill the fungi (time‐kill kinetics) [3] | Concentration that resists biofilm formation (SMIC80) [4] [µg/mL]
1 | C[C@@H]1[C@H](O)[C@@H](C)/C=C/C=C/C=C/C=C/C=C/C=C/C=C/[C@H](O[C@@H]2O[C@H](C)[C@@H](O)[C@H](N)[C@@H]2O)C[C@@H]2O[C@](O)(C[C@@H](O)C[C@@H](O)[C@H](O)CC[C@@H](O)C[C@@H](O)CC(=O)O[C@H]1C)C[C@H](O)[C@H]2C(=O)O [AmpB, amphotericin B] | 1.6 (≈ 1.73 µM) | 1.6 (≈ 1.73 µM) | 1.6 (≈ 1.73 µM) | 1.6 (≈ 1.73 µM) | 1.6 (≈ 1.73 µM) | 1.6 (≈ 1.73 µM) |  | 
2 | poly(DL‐diaminopropionic acid) [PDAP20] |  |  |  |  |  |  | several hours | 6.3

Source: PMC9108603, “Microbial Metabolite Inspired β‐Peptide Polymers Displaying Potent and Selective Antifungal Activity” (Advanced Science, 2022)
